Experimental data taken from article PMC12651750 (Cells, 2025).
Like-named read-outs stand apart in the source and are kept apart here.

Columns and labels:
[1] = tested on: A549, human lung cancer cell line; assay: Anti-proliferation MTT / CCK-8 assay; type: cell-based; conditions: A549, read-out: IC50 proliferation A549, heading: IC50 proliferation A549, 72 h, mean ± SEM of three independent assays
From the text: (§1) K562, human erythroleukemia line; HL-60, human leukemic cell line; Jurkat, human leukemic T cell line; CCRF-CEM, human leukemic lymphoblasts; U937, human histiocytic lymphoma; HCT-116, human colorectal cancer cell line; A549, human lung cancer cell line; Hep G2, human hepatoma cell lines; MDA-MB-231, MCF-7, human breast cancer cell line; 4T1, mouse breast cancer cell line; PC12, pheochromocytoma of the rat adrenal medulla; HUVEC, human umbilical vein endothelial cells. These cells were purchased from the National Collection of Authenticated Cell Cultures (Shanghai, China).
(§2) The concentration of the cell suspension was adjusted to the appropriate concentration with fresh medium (the number of cells was about 30–40% of the bottom area of the well plate). 150 μL (about 1 × 10^4 cells) of prepared cell suspension containing different concentrations of NBU-2 were added to a 96-microtiter plate, and 3 replicate wells were set up for each concentration. If the cells were adherent, the cells were first allowed to grow overnight in 96 microtiter plates until the cells were adherent, and then the old medium was replaced with the drug-containing medium. The plates were incubated in a 5% CO2 cell incubator at 37 °C for 72 h. Then, 15 μL of MTT solution was added to each well, 100 μL of 10% SDS solution (pH = 2) was added after 4 h, and the plate was incubated at 37 °C with 5% CO2 overnight to fully dissolve the crystals. Finally, the absorbance value of each well was measured at 570 and 655 nm.
(§3) The cells (about 1 × 10^4 cells) were treated with different concentrations of NBU-2 and DMSO control for different times (24 h, 48 h, 72 h), with 3 replicate wells for each concentration. Incubate at 37 °C in a 5% CO2 cell culture incubator. After a predetermined time, 10 μL of CCK-8 was added to each well and incubated for 2 h. The absorbance was measured at the excitation wavelength of 450 nm.

[2] = tested on: PC12, pheochromocytoma of the rat adrenal medulla; assay: Anti-proliferation MTT / CCK-8 assay; type: cell-based; conditions: PC-12, 72 h
From the text: as §1, §2, §3

[3] = tested on: HL-60, human leukemic cell line; assay: Anti-proliferation MTT / CCK-8 assay; type: cell-based
From the text: as §1, §2, §3

[4] = tested on: U937, human histiocytic lymphoma; assay: Anti-proliferation MTT / CCK-8 assay; type: cell-based
From the text: as §1, §2, §3

[5] = tested on: CCRF-CEM, human leukemic lymphoblasts; assay: Anti-proliferation MTT / CCK-8 assay; type: cell-based
From the text: as §1, §2, §3

[6] = tested on: 4T1, mouse breast cancer cell line; assay: Anti-proliferation MTT / CCK-8 assay; type: cell-based; conditions: 72 h
From the text: as §1, §2, §3

[7] = tested on: MDA-MB-231, human breast cancer cell line; assay: Anti-proliferation MTT / CCK-8 assay; type: cell-based; conditions: MDA-MB-231, read-out: IC50 proliferation MDA-MB-231, heading: IC50 proliferation MDA-MB-231, 72 h, mean ± SEM of three independent assays
From the text: as §1, §2, §3

[8] = tested on: K562, human erythroleukemia line; assay: Anti-proliferation MTT / CCK-8 assay; type: cell-based; conditions: K562, read-out: IC50 proliferation K562, heading: IC50 proliferation K562, 72 h, mean ± SEM of three independent assays
From the text: as §1, §2, §3

[9] = tested on: Hep G2, human hepatoma cell lines; assay: Anti-proliferation MTT / CCK-8 assay; type: cell-based; conditions: HepG2, read-out: IC50 proliferation HepG2, heading: IC50 proliferation HepG2, 72 h, mean ± SEM of three independent assays
From the text: as §1, §2, §3

[10] = tested on: HCT-116, human colorectal cancer cell line; assay: Anti-proliferation MTT / CCK-8 assay; type: cell-based; conditions: HCT-116, read-out: IC50 proliferation HCT-116, heading: IC50 proliferation HCT-116, 72 h, mean ± SEM of three independent assays
From the text: as §1, §2, §3

[11] = tested on: MCF-7, human breast cancer cell line; assay: Anti-proliferation MTT / CCK-8 assay; type: cell-based; conditions: MCF7, read-out: IC50 proliferation MCF-7, heading: IC50 proliferation MCF-7, 72 h, mean ± SEM of three independent assays
From the text: as §1, §2, §3

[12] = tested on: Jurkat cells; assay: Whole proteomic analysis (mass spectrometry); type: cell-based, human
Procedure: The cell cultivation was completed in a 60 mm plate; the number of cells accounted for roughly 30–40% of the orifice. We stimulated cells with 1 μM and 5 μM of NBU-2 and 0.1% DMSO. […] After 48 h, the cells were collected, about 200 μL of NP-40 Lysis Buffer containing phosphatase inhibitor and protease inhibitor was added, and the cells were lysed to release the proteins. Measure the protein concentration of each group of samples using the BCA protein quantification method. The disulfide bonds in the protein structure were reduced using TCEP and then alkylated with IAA. Samples were added to a centrifugal filtration unit with an ultrafiltration membrane, and proteins were digested using trypsin 2 times, the first time for 4 h and the second time overnight with the addition of an appropriate amount of trypsin. […] Samples were reconstituted using 0.1% formic acid, and approximately 1 μg of protein was taken for detection using mass spectrometry.
Mass spectrometry analysis was performed using an Orbitrap Fusion Lumos mass spectrometer (Thermo Fisher Scientific, Shanghai, China). Chromatographic separations were performed on an Acclaim PepMap C18 column using a 60 min linear gradient elution program: the proportion of mobile phase B (acetonitrile containing 0.1% formic acid) was increased from 2% to 35%, and the flow rate was maintained at 250 nL/min. […]

Cc1cccc2c(=O)c3c(NCCCCCC(=O)NO)ccc([N+](=O)[O-])c3[nH]c12 [NBU-2, N-hydroxy-6-((5-methyl-4-nitro-9-oxo-9,10-dihydroacridin-1-yl)amino)hexanamide]
IC50 [1]: 33.7 ± 2.15 µM | IC50 [2]: > 0.05 µM | IC50 ([3]; HL-60, 72 h, read-out: IC50 against HL-60): < 5 µM | IC50 ([3]; HL-60, read-out: IC50 proliferation HL-60, heading: IC50 proliferation HL-60, 72 h, mean ± SEM of three independent assays): 1.92 ± 0.08 µM | IC50 ([4]; U-937, 72 h, read-out: IC50 against U937): < 5 µM | IC50 ([4]; U-937, read-out: IC50 proliferation U937, heading: IC50 proliferation U937, 72 h, mean ± SEM of three independent assays): 2.34 ± 1.08 µM | IC50 ([5]; 72 h, read-out: IC50 against CCRF-CEM): < 5 µM | IC50 ([5]; read-out: IC50 proliferation CCRF-CEM, 72 h, mean ± SEM of three independent assays): 2.68 ± 0.3 µM | IC50 [6]: > 0.05 µM | IC50 [7]: 8.76 ± 1.88 µM | IC50 [8]: 7.02 ± 1.85 µM | IC50 [9]: 7.55 ± 0.46 µM | IC50 [10]: 7.06 ± 1.48 µM | IC50 [11]: 14.9 ± 3.21 µM | Total Akt protein (proteomics) ([12]; 1 µM and 5 µM vs DMSO, p > 0.05): did not show any significant change | Expression of Rb (proteomics) ([12]; 48 h): not affected
